Read-outs that look alike come from different tables or passages of the source.
Conditions: 13-membered ring

For `CCOC(=O)C[C@@H]1NC(=O)C(n2cc(CCN3CC(F)C3)c(C(F)(F)F)cc2=O)c2cc(ccc2Cl)Oc2cccc(C)c2-c2cc(C)c(F)c1c2` (stereo in doubt), the ring closure, isolated yield (from CCOC(=O)C[C@H](NC(=O)C(c1cc(Br)ccc1Cl)n1cc(CCN2CC(F)C2)c(C(F)(F)F)cc1=O)c1cc(-c2c(C)cccc2O)cc(C)c1F, ether bond, CuI/K2CO3/(1R,2R)-N1,N2-dimethylcyclohexane-1,2-diamine, 1,4-dioxane, 26.7 mM, 100.0 °C, 16.0 h) was 50.3%.
In the case of `CCOC(=O)C[C@@H]1NC(=O)C(n2cc(CCN3CC(F)C3)cc(C)c2=O)c2cc(ccc2F)Oc2cccc(C)c2-c2cc(C)c(F)c1c2` (some centres unmarked), the ring closure, isolated yield (from CCOC(=O)C[C@H](NC(=O)C(c1cc(Br)ccc1F)n1cc(CCN2CC(F)C2)cc(C)c1=O)c1cc(-c2c(C)cccc2O)cc(C)c1F, ether bond, CuI/K2CO3/(1R,2R)-N1,N2-dimethylcyclohexane-1,2-diamine, 1,4-dioxane, 20.0 mM, 100.0 °C, 16.0 h) is reported as 70.9%.
In the case of `CCOC(=O)C[C@@H]1NC(=O)C(n2cc3ccccc3cc2=O)c2cc(ccc2F)Oc2cccc(C)c2-c2cc(C)c(F)c1c2` (some centres unmarked), the ring closure, isolated yield (from CCOC(=O)C[C@H](NC(=O)C(c1cc(Br)ccc1F)n1cc2ccccc2cc1=O)c1cc(-c2c(C)cccc2O)cc(C)c1F, ether bond, CuI/(1R,2R)-N,N'-dimethylcyclohexane-1,2-diamine/K2CO3, dioxane, 58.0 mM, 100.0 °C, 2.0 h) is reported as 33.9%.
For `CCOC(=O)C[C@H](NC(=O)C(c1cc(Br)cc(Cl)c1F)n1cc(CCN2CC(F)C2)c(C(F)(F)F)cc1=O)c1cc(-c2c(C)cccc2O)cc(C)c1F` (some centres unmarked), the ring closure, isolated yield (the molecule shown is the open-chain precursor, ether bond, CuI/(1R,2R)-N1,N2-dimethylcyclohexane-1,2-diamine/K2CO3, dioxane, 46.7 mM, 100.0 °C) was 46.1%.
For `CCOC(=O)C[C@@H]1NC(=O)C(n2cc(CCN3CC(F)C3)c(C(F)(F)F)cc2=O)c2cc(ccc2F)Oc2cccc(C)c2-c2cc(C3CC3)c(F)c1c2` (stereo in doubt), the ring closure, isolated yield (from CCOC(=O)C[C@H](NC(=O)C(c1cc(Br)ccc1F)n1cc(CCN2CC(F)C2)c(C(F)(F)F)cc1=O)c1cc(-c2c(C)cccc2O)cc(C2CC2)c1F, ether bond, CuI/K2CO3/(1R,2R)-N1,N2-dimethylcyclohexane-1,2-diamine, dioxane, 25.0 mM, 100.0 °C, 16.0 h) was 67.3%.
Compound `CCOC(=O)C[C@H](NC(=O)C(c1cc(Br)ccc1F)n1ccc(C(F)(F)F)c(Cl)c1=O)c1cc(-c2c(C)cccc2O)cc(C)c1F` (some centres unmarked) has a ring closure, isolated yield (the molecule shown is the open-chain precursor, ether bond, CuI/K2CO3/(1R,2R)-N1,N2-dimethylcyclohexane-1,2-diamine, 1,4-dioxane, 43.3 mM, 100.0 °C) of 56.1%.
Work on `CCOC(=O)C[C@@H]1NC(=O)C(n2cc(CCN3CC(F)C3)c(C(F)(F)F)cc2=O)c2cc(ccc2F)Oc2cccc(C)c2-c2cc(C)c(F)c1c2` (some centres unmarked) yielded a ring closure, isolated yield (from CCOC(=O)C[C@H](NC(=O)C(c1cc(Br)ccc1F)n1cc(CCN2CC(F)C2)c(C(F)(F)F)cc1=O)c1cc(-c2c(C)cccc2O)cc(C)c1F, ether bond, CuI/N1,N2-dimethylcyclohexane-1,2-diamine/K2CO3, dioxane, 18.7 mM, 100.0 °C, 16.0 h) of 72.5%.
`CCOC(=O)C[C@@H]1NC(=O)C(n2cc(CCN3CC(F)C3)c(C(F)(F)F)cc2=O)c2cc(ccc2F)Oc2cc(C3COC3)cc(C)c2-c2cc(C)c(F)c1c2` (some centres unmarked) showed a ring closure, isolated yield (from CCOC(=O)C[C@H](NC(=O)C(c1cc(Br)ccc1F)n1cc(CCN2CC(F)C2)c(C(F)(F)F)cc1=O)c1cc(-c2c(C)cc(C3COC3)cc2O)cc(C)c1F, ether bond, CuI/(1R,2R)-N1,N2-dimethylcyclohexane-1,2-diamine/K2CO3, 1,4-dioxane, 25.0 mM, 100.0 °C, 1.0 h) of 31.8%.
With `CCOC(=O)C[C@@H]1NC(=O)C(n2cc(CCN3CC(F)C3)c(C(F)(F)F)cc2=O)c2cc(ccc2F)Oc2cccc(Cl)c2-c2cc(C)c(F)c1c2` (stereo in doubt) the ring closure, isolated yield (from CCOC(=O)C[C@H](NC(=O)C(c1cc(Br)ccc1F)n1cc(CCN2CC(F)C2)c(C(F)(F)F)cc1=O)c1cc(-c2c(O)cccc2Cl)cc(C)c1F, ether bond, CuI/(1R,2R)-N1,N2-dimethylcyclohexane-1,2-diamine, 1,4-dioxane, 70.0 mM, 100.0 °C, 16.0 h) was 49.7%.
In the case of `CCOC(=O)C[C@@H]1NC(=O)C(n2cc(CCN3CC(F)C3)c(C(F)(F)F)cc2=O)c2cccc(c2)Oc2cccc(Cl)c2-c2cc1c(F)c(C(F)(F)F)c2` (some centres unmarked), the ring closure, isolated yield (from CCOC(=O)C[C@H](NC(=O)C(c1cccc(Br)c1)n1cc(CCN2CC(F)C2)c(C(F)(F)F)cc1=O)c1cc(-c2c(O)cccc2Cl)cc(C(F)(F)F)c1F, ether bond, CuI/N1,N2-dimethylcyclohexane-1,2-diamine/K2CO3, dioxane, 15.3 mM, 100.0 °C, 16.0 h) is reported as 55.1%.
In the case of `CCOC(=O)C[C@@H]1NC(=O)C(n2cc(CCN3CC(F)C3)c(C(F)(F)F)cc2=O)c2cc(ccc2F)Oc2cc(N3C4CCC3COC4)cc(C)c2-c2cc(C)c(F)c1c2` (some centres unmarked), the ring closure, isolated yield (from CCOC(=O)C[C@H](NC(=O)C(c1cc(Br)ccc1F)n1cc(CCN2CC(F)C2)c(C(F)(F)F)cc1=O)c1cc(-c2c(C)cc(N3C4CCC3COC4)cc2O)cc(C)c1F, ether bond, CuI/(1R,2R)-N1,N2-dimethylcyclohexane-1,2-diamine/K2CO3, dioxane, 27.5 mM, 100.0 °C, 16.0 h) is reported as 54.8%.
With `CCOC(=O)C[C@@H]1NC(=O)C(n2cc(CCN3CC(F)C3)c(C(F)(F)F)cc2=O)c2cc(cc(C(F)(F)F)c2)Oc2cccc(C)c2-c2cc(C)c(F)c1c2` (stereo in doubt) the ring closure, isolated yield (from CCOC(=O)C[C@H](NC(=O)C(c1cc(Br)cc(C(F)(F)F)c1)n1cc(CCN2CC(F)C2)c(C(F)(F)F)cc1=O)c1cc(-c2c(C)cccc2O)cc(C)c1F, ether bond, CuI/K2CO3/(1R,2R)-N1,N2-dimethylcyclohexane-1,2-diamine, dioxane, 90.0 mM, 100.0 °C, 2.0 h) was 69%.
For `CCOC(=O)C[C@@H]1NC(=O)C(n2cc(CCN3CC(F)C3)c(C(F)(F)F)cc2=O)c2cc(ccc2F)Oc2nn(C)cc2-c2cc(C)c(F)c1c2` (some centres unmarked), the ring closure, isolated yield (from CCOC(=O)C[C@H](N)c1cc(-c2cn(C)nc2Oc2ccc(F)c(C(C(=O)O)n3cc(CCN4CC(F)C4)c(C(F)(F)F)cc3=O)c2)cc(C)c1F, amide bond, EDCI/HOBt/DIEA, MeCN, 32.6 mM, 60.0 °C, 6.0 h) was 29.9%.
With `CCOC(=O)C[C@@H]1NC(=O)C(n2cc(CCN3CC(F)C3)c(C(F)(F)F)cc2=O)c2cc(ccc2F)Oc2ccc(F)cc2-c2cc(C)c(F)c1c2` (some centres unmarked) the ring closure, isolated yield (from CCOC(=O)C[C@H](NC(=O)C(c1cc(Br)ccc1F)n1cc(CCN2CC(F)C2)c(C(F)(F)F)cc1=O)c1cc(-c2cc(F)ccc2O)cc(C)c1F, ether bond, CuI/(1R,2R)-N1,N2-dimethylcyclohexane-1,2-diamine/K2CO3, dioxane, 95.0 mM, 100.0 °C, 3.0 h) was 54.4%.
For `CCOC(=O)C[C@@H]1NC(=O)C(n2ccc(C(F)(F)F)cc2=O)c2cc(ccc2F)Oc2cccc(C)c2-c2cc(C)c(F)c1c2` (some centres unmarked), the ring closure, isolated yield (from CCOC(=O)C[C@H](NC(=O)C(c1cc(Br)ccc1F)n1ccc(C(F)(F)F)cc1=O)c1cc(-c2c(C)cccc2O)cc(C)c1F, ether bond, CuI/(1R,2R)-N1,N2-dimethylcyclohexane-1,2-diamine/K2CO3, 1,4-dioxane, 40.0 mM, 100.0 °C, 16.0 h) was 88.7%.
Compound `CCOC(=O)C[C@@H]1NC(=O)C(n2cc(CCN3CC(F)C3)c(C(F)(F)F)cc2=O)c2cc(cc(C(F)(F)F)c2)Oc2cccc(C)c2-c2cc1c(F)c(C(F)(F)F)c2` (some centres unmarked) has a ring closure, isolated yield (from CCOC(=O)C[C@H](NC(=O)C(c1cc(Br)cc(C(F)(F)F)c1)n1cc(CCN2CC(F)C2)c(C(F)(F)F)cc1=O)c1cc(-c2c(C)cccc2O)cc(C(F)(F)F)c1F, ether bond, CuI/(1R,2R)-N1,N2-dimethylcyclohexane-1,2-diamine/K2CO3, dioxane, 15.0 mM, 100.0 °C, 2.0 h) of 64.3%.
In the case of `CCOC(=O)C[C@@H]1NC(=O)C(n2cc(CCN3CC(F)C3)c(C(F)(F)F)cc2=O)c2cc(ccc2F)Oc2cc(C)cc(C)c2-c2cc(C)c(F)c1c2` (some centres unmarked), the ring closure, isolated yield (from CCOC(=O)C[C@H](NC(=O)C(c1cc(Br)ccc1F)n1cc(CCN2CC(F)C2)c(C(F)(F)F)cc1=O)c1cc(-c2c(C)cc(C)cc2O)cc(C)c1F, ether bond, CuI/K2CO3/(1R,2R)-N1,N2-dimethylcyclohexane-1,2-diamine, dioxane, 66.0 mM, 100.0 °C, 16.0 h) is reported as 49.3%.
With `CCOC(=O)C[C@@H]1NC(=O)C(n2cc(CCN3CC(F)C3)c(C(F)(F)F)cc2=O)c2cccc(c2)Oc2cc(C(F)(F)F)cc(C)c2-c2cc1c(F)c(C(F)(F)F)c2` (some centres unmarked) the ring closure, isolated yield (from CCOC(=O)C[C@H](NC(=O)C(c1cccc(Br)c1)n1cc(CCN2CC(F)C2)c(C(F)(F)F)cc1=O)c1cc(-c2c(C)cc(C(F)(F)F)cc2O)cc(C(F)(F)F)c1F, ether bond, CuI/(1R,2R)-N1,N2-dimethylcyclohexane-1,2-diamine/K2CO3, dioxane, 22.0 mM, 100.0 °C, 16.0 h) was 38.4%.
`CCOC(=O)C[C@@H]1NC(=O)C(n2cc(CCOC)c(C(F)(F)F)cc2=O)c2cc(ccc2F)Oc2cccc(C)c2-c2cc(C)c(F)c1c2` (some centres unmarked) gave a ring closure, isolated yield (from CCOC(=O)C[C@H](NC(=O)C(c1cc(Br)ccc1F)n1cc(CCOC)c(C(F)(F)F)cc1=O)c1cc(-c2c(C)cccc2O)cc(C)c1F, ether bond, CuI/K2CO3/(1R,2S)-N1,N2-dimethylcyclohexane-1,2-diamine, dioxane, 65.0 mM, 100.0 °C) of 27.9%.
With `CCOC(=O)C[C@H](NC(=O)C(c1cc(Cl)cc(Br)c1)n1cc(CCN2CC(F)C2)c(C(F)(F)F)cc1=O)c1cc(-c2c(O)ccc(F)c2C)cc(C)c1F` (some centres unmarked) the ring closure, isolated yield (the molecule shown is the open-chain precursor, ether bond, CuI/(1R,2R)-N1,N2-dimethylcyclohexane-1,2-diamine/K2CO3, dioxane, 22.0 mM, 100.0 °C) was 98.3%.
`CCOC(=O)C[C@@H]1NC(=O)C(n2cc(CCN3CC(F)C3)c(C(F)(F)F)cc2=O)c2cccc(c2)Oc2cc(C)cc(C)c2-c2cc1c(F)c(C(F)(F)F)c2` (some centres unmarked) gave a ring closure, isolated yield (from CCOC(=O)C[C@H](NC(=O)C(c1cccc(Br)c1)n1cc(CCN2CC(F)C2)c(C(F)(F)F)cc1=O)c1cc(-c2c(C)cc(C)cc2O)cc(C(F)(F)F)c1F, ether bond, CuI/(1R,2R)-N1,N2-dimethylcyclohexane-1,2-diamine/K2CO3, dioxane, 28.3 mM, 100.0 °C, 16.0 h) of 66.2%.
`CCOC(=O)C[C@@H]1NC(=O)C(n2cc(CCN3CCC(F)(F)CC3)c(C(F)(F)F)cc2=O)c2cc(ccc2F)Oc2cccc(C)c2-c2cc(C)c(F)c1c2` (some centres unmarked) showed a ring closure, isolated yield (from CCOC(=O)C[C@H](NC(=O)C(c1cc(Br)ccc1F)n1cc(CCN2CCC(F)(F)CC2)c(C(F)(F)F)cc1=O)c1cc(-c2c(C)cccc2O)cc(C)c1F, ether bond, CuI/K2CO3/(1R,2R)-N1,N2-dimethylcyclohexane-1,2-diamine, 1,4-dioxane, 36.3 mM, 100.0 °C, 16.0 h) of 66.2%.
“ethyl 2-[(14S,17S)-20-cyclopropyl-12,19-difluoro-3-methyl-15-oxo-14-[2-oxo-4-(trifluoromethyl) pyridin-1-yl]-8-oxa-16-azatetracyclo [16.3.1.1^{9,13}.0^{2,7}]tricosa-1(22),2(7),3,5,9,11,13(23),18,20-nonaen-17-yl]acetate” showed a ring closure, isolated yield (ether bond, CuI/K2CO3/(1R,2R)-N1,N2-dimethylcyclohexane-1,2-diamine, 1,4-dioxane, 33.3 mM, 100.0 °C) of 56.2%.

— US20240279214A1, “ALPHA4 BETA7 INEGRIN ANTAGONISTS AND USES THEREOF” (XinThera, Inc., priority 2022, published 2024)
